Reference: patent US8802597B2, “Herbicidal pyrimidines” (E I du Pont de Nemours and Company, priority 2003, dated 2014)

What was measured:
Assay type in all cases: in vivo
[1] = tested on: bermudagrass (Cynodon dactylon); experiment: Test G pre/postemergence; details: Preemergence
In short: (§1)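 Test chemicals in non-phytotoxic solvent with surfactant applied preemergence to sown seeds or nutlets and postemergence to plants 2–18 cm tall (1- to 4-leaf stage). Greenhouse-held 12–21 days, then visually rated against untreated controls on a 0 (no effect) to 100 (complete control) scale.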

[2] = tested on: Surinam grass (Brachiaria decumbens); experiment: Test G pre/postemergence; details: Preemergence
In short: as §1

[3] = tested on: downy bromegrass (Bromus tectorum); experiment: Test G pre/postemergence; details: Preemergence
In short: as §1

[4] = tested on: guineagrass (Panicum maximum); experiment: Test G pre/postemergence; details: Preemergence
In short: as §1

[5] = tested on: quackgrass (Elytrigia repens); experiment: Test G pre/postemergence; details: Preemergence
In short: as §1

[6] = tested on: goosegrass (Eleusine indica); experiment: Test G pre/postemergence; details: Preemergence
In short: as §1

[7] = tested on: common chickweed (Stellaria media); experiment: Test G pre/postemergence; details: Preemergence
In short: as §1

[8] = tested on: field bindweed (Convolvulus arvensis); experiment: Test G pre/postemergence; details: Preemergence
In short: as §1

[9] = tested on: common ragweed (Ambrosia elatior); experiment: Test G pre/postemergence; details: Preemergence
In short: as §1

[10] = tested on: dallisgrass (Paspalum dilatatum); experiment: Test G pre/postemergence; details: Preemergence
In short: as §1

[11] = tested on: catchweed bedstraw (galium; Galium aparine); experiment: Test D pre/postemergence; details: scale 0 to 100 (100 = complete control)
Source text: (§2) Seeds of plant species selected from catchweed bedstraw (galium; Galium aparine), common chickweed (Stellaria media), kochia (Kochia scoparia), lambsquarters (Chenopodium album), pigweed (Amaranthus retroflexus), Russian thistle (Salsola kali), wild buckwheat (Polygonum convolvulus), wild mustard (Sinapis arvensis), winter barley (Hordeum vulgare), and wheat (Triticum aestivum) were planted and treated preemergence with test chemicals formulated in a non-phytotoxic solvent mixture which included a surfactant.
(§3) At the same time, plants selected from these crop and weed species were treated with postemergence applications of some of the test chemicals formulated in the same manner. Plants ranged in height from 2 to 18 cm (1- to 4-leaf stage) for postemergence treatments. Treated plants and controls were maintained in a controlled growth environment for 15 to 25 days after which time all species were compared to controls and visually evaluated. Plant response ratings, summarized in Table D, are based on a scale of 0 to 100 where 0 is no effect and 100 is complete control. A dash (-) response means no test result.

[12] = tested on: pigweed (Amaranthus retroflexus); experiment: Test D pre/postemergence; details: scale 0 to 100 (100 = complete control)
Source text: as §2, §3

CCOC(=O)c1nc(C2CC2)nc(N)c1Cl [Compound 4, ethyl 6-amino-5-chloro-2-cyclopropyl-4-pyrimidinecarboxylate]
Plant response rating, Bermudagrass ([1]; 62 g ai/ha, scale 0-100): 20
Plant response rating, Bermudagrass ([1]; 125 g ai/ha, scale 0-100): 90
Plant response rating, Bermudagrass ([1]; 250 g ai/ha, scale 0-100): 95
Plant response rating, Bermudagrass ([1]; 500 g ai/ha, scale 0 to 100): 100
Plant response rating, Surinam Grass ([2]; 62 g ai/ha, scale 0-100): 30
Plant response rating, Surinam Grass ([2]; 125 g ai/ha, scale 0-100): 60
Plant response rating, Surinam Grass ([2]; 250 g ai/ha, scale 0-100): 80
Plant response rating, Surinam Grass ([2]; 500 g ai/ha, scale 0 to 100): 95
Plant response rating, Bromegrass, Downy ([3]; 62 g ai/ha, scale 0-100): 30
Plant response rating, Bromegrass, Downy ([3]; 125 g ai/ha, scale 0-100): 70
Plant response rating, Bromegrass, Downy ([3]; 250 g ai/ha, scale 0-100): 100
Plant response rating, Bromegrass, Downy ([3]; 500 g ai/ha, scale 0 to 100): 100
Plant response rating, Guineagrass ([4]; 62 g ai/ha, scale 0-100): 95
Plant response rating, Guineagrass ([4]; 125 g ai/ha, scale 0-100): 95
Plant response rating, Guineagrass ([4]; 250 g ai/ha, scale 0-100): 100
Plant response rating, Guineagrass ([4]; 500 g ai/ha, scale 0 to 100): 100
Plant response rating, Quackgrass ([5]; 62 g ai/ha, scale 0-100): 60
Plant response rating, Quackgrass ([5]; 125 g ai/ha, scale 0-100): 90
Plant response rating, Quackgrass ([5]; 250 g ai/ha, scale 0-100): 100
Plant response rating, Quackgrass ([5]; 500 g ai/ha, scale 0 to 100): 100
Plant response rating, Goosegrass ([6]; 62 g ai/ha, scale 0-100): 10
Plant response rating, Goosegrass ([6]; 125 g ai/ha, scale 0-100): 60
Plant response rating, Goosegrass ([6]; 250 g ai/ha, scale 0-100): 70
Plant response rating, Goosegrass ([6]; 500 g ai/ha, scale 0 to 100): 90
Plant response rating, Chickweed ([7]; 62 g ai/ha, scale 0-100): 100
Plant response rating, Chickweed ([7]; 125 g ai/ha, scale 0-100): 100
Plant response rating, Chickweed ([7]; 250 g ai/ha, scale 0-100): 100
Plant response rating, Chickweed ([7]; 500 g ai/ha, scale 0 to 100): 100
Plant response rating, Bindweed, Field ([8]; 62 g ai/ha, scale 0-100): 100
Plant response rating, Bindweed, Field ([8]; 125 g ai/ha, scale 0-100): 100
Plant response rating, Bindweed, Field ([8]; 250 g ai/ha, scale 0-100): 100
Plant response rating, Bindweed, Field ([8]; 500 g ai/ha, scale 0 to 100): 100
Plant response rating, Ragweed ([9]; 62 g ai/ha, scale 0-100): 80
Plant response rating, Ragweed ([9]; 125 g ai/ha, scale 0-100): 100
Plant response rating, Ragweed ([9]; 250 g ai/ha, scale 0-100): 100
Plant response rating, Ragweed ([9]; 500 g ai/ha, scale 0 to 100): 100
Plant response rating, Dallisgrass ([10]; 62 g ai/ha, scale 0-100): 0
Plant response rating, Dallisgrass ([10]; 125 g ai/ha, scale 0-100): 50
Plant response rating, Dallisgrass ([10]; 250 g ai/ha, scale 0-100): 95
Plant response rating, Dallisgrass ([10]; 500 g ai/ha, scale 0 to 100): 100
Plant response rating, Galium ([11]; Postemergence, 16 g ai/ha): 100
Plant response rating, Galium ([11]; Postemergence, 31 g ai/ha): 100
Plant response rating, Galium ([11]; Postemergence, 62 g ai/ha): 100
Plant response rating, Galium ([11]; Postemergence, 125 g ai/ha): 100
Plant response rating, Galium ([11]; Preemergence, 16 g ai/ha): 90
Plant response rating, Galium ([11]; Preemergence, 31 g ai/ha): 100
Plant response rating, Galium ([11]; Preemergence, 62 g ai/ha): 100
Plant response rating, Galium ([11]; Preemergence, 125 g ai/ha): 100
Plant response rating, Pigweed ([12]; Postemergence, 16 g ai/ha): 85
Plant response rating, Pigweed ([12]; Postemergence, 31 g ai/ha): 100
Plant response rating, Pigweed ([12]; Postemergence, 62 g ai/ha): 100
Plant response rating, Pigweed ([12]; Postemergence, 125 g ai/ha): 100
Plant response rating, Pigweed ([12]; Preemergence, 16 g ai/ha): 70
Plant response rating, Pigweed ([12]; Preemergence, 31 g ai/ha): 90
Plant response rating, Pigweed ([12]; Preemergence, 62 g ai/ha): 100
Plant response rating, Pigweed ([12]; Preemergence, 125 g ai/ha): 100
